Key:
[1] = tested on: H522; assay: MTT cytotoxicity assay, 72 h; assay type: cell-based; settings: Homo sapiens, NCI-H522, H522 NSCLC cells, plated to confluence, read-out: IC50 (mean cytotoxic concentration, MTT)
Description: (§1) To determine whether the effects on cell viability in AML cells were related to the specific cancer subtypes, or to differences in temporal response to DJ4, we examined whether DJ4 affected the viability of various NSCLC cells over longer periods of drug exposure. MTT assays were performed on H1299, H226, A549, H522, H23, and H460 NSCLC cell lines. […] Similarly, the cell viability of MDA-MB-231 breast cancer cells was assessed by counting live/dead cell populations after a 24-h treatment with 1–10 µM concentrations of DJ4. A concentration-dependent increase in cell death from 29% (1 µM) to 47% (10 µM) was observed (Figure 2B).
(§2) The cytotoxic effect of DJ4 was studied in H1299, H226, A549, H522, H23, and H460 non-small cell lung cancer cells. The cells were seeded into 96-well plates with confluence ([…]). The cells were further treated with DMSO or DJ4 for 72 h. To study the effects of analogs, A549, A375M, and MDA-MB-231 cells were plated with low density (2000 cells/well) in a 96-well plate and grown overnight at 37 °C (with 5% CO2). Cells were treated with the analogs at the concentration of 0–10 µM for 48 h. At the end of the treatment period, cells were incubated with a tetrazolium dye MTT (3-(4,5-dimethylthiazol-2-yl)-2,5-diphenyltetrazolium bromide) reagent (Sigma) at 37 °C for 3 h to develop formazan crystals. The media was siphoned off and crystals were dissolved in DMSO and mixed gently on rocker for 5 min. Absorbance was read at 570 nm and 630 nm (background) wavelength. IC50 values were calculated from non-linear regression curve fit by using GraphPad Prism 5.0 software.

[2] = tested on: H23; assay: MTT cytotoxicity assay, 72 h; assay type: cell-based; settings: Homo sapiens, NCI-H23, H23 NSCLC cells, plated to confluence, read-out: IC50 (mean cytotoxic concentration, MTT)
Description: as §1, §2

[3] = tested on: A549; assay: MTT cytotoxicity assay, 72 h; assay type: cell-based; settings: Homo sapiens, A549 NSCLC cells, plated to confluence, read-out: IC50 (mean cytotoxic concentration, MTT)
Description: as §1, §2

[4] = tested on: H1299; assay: MTT cytotoxicity assay, 72 h; assay type: cell-based; settings: Homo sapiens, NCI-H1299, H1299 NSCLC cells, plated to confluence, read-out: IC50 (mean cytotoxic concentration, MTT)
Description: as §1, §2

[5] = tested on: H226; assay: MTT cytotoxicity assay, 72 h; assay type: cell-based; settings: Homo sapiens, NCI-H226, H226 NSCLC cells, plated to confluence, read-out: IC50 (mean cytotoxic concentration, MTT)
Description: as §1, §2

[6] = tested on: H460; assay: MTT cytotoxicity assay, 72 h; assay type: cell-based; settings: Homo sapiens, NCI-H460, H460 NSCLC cells, plated to confluence, read-out: IC50 (mean cytotoxic concentration, MTT)
Description: as §1, §2

[7] = tested on: pMYPT1 (Thr696 and Thr853) in MDA-MB-231 cells; assay: Western blot of MYPT1 phosphorylation (ROCK1/2 targeting); assay type: cell-based, human; settings: MDA-MB-231, 2.5, 5.0 and 10 µM, 24 h
Description: To extend these observations to MDA-MB-231 breast cancer cells, cells were treated with DJ4 at 2.5, 5.0, and 10 µM for 24 h. ROCK1/2 catalyzes the inactivating phosphorylation of the myosin phosphatase subunit MYPT1 at Thr696 and Thr853 [16]. To confirm the targeting of ROCK1/2 by DJ4 in MDA-MB-231 cells, we probed for phosphorylation of MYPT1.
For protein expression studies, MDA-MB-231 cells were treated with indicated concentrations of DJ4 for 24 h. Additionally, A549 cells were treated for 24 h and 48 h. Cell lysate preparation, protein estimation, and Western blot analysis was performed as per the procedure reported earlier. The blots were probed with cleaved caspase 7 (#9492, Cell Signaling, Danvers, MA, USA), GAPDH (#97166, Cell Signaling, Danvers, MA, USA), β-Actin (#3700, Cell Signaling, Danvers, MA, USA), pErk (#5726, Cell Signaling, Danvers, MA, USA), p21 ^WAF1/CIP1 (#60480, Cell Signaling, Danvers, MA, USA), cyclinD3 (#2936, Cell Signaling, Danvers, MA, USA), CDK4 (#23972, Cell Signaling, Danvers, MA, USA), cleaved PARP (#32563, Cell Signaling, Danvers, MA, USA), pan Erk (#23887, Cell Signaling, Danvers, MA, USA), pMYPT1 (Thr853, # SAB4503944, Millipore, Inc., Burlington, MA, USA) and PCNA (#sc-56, Santa Cruz Biotechnology, Inc., Dallas, TX, USA) antibodies.

## O=C1N/C(=N\CCc2ccccc2)S/C1=C/c1c[nH]c2ncccc12 [DJ4]
[1]
  IC50: 1690 ± 480 nM
[2]
  IC50: 2910 ± 710 nM
[3]
  IC50: 980 ± 210 nM
[4]
  IC50: 440 ± 40 nM
[5]
  IC50: 670 ± 380 nM
[6]
  IC50: 9.53 µM
[7]
  pMYPT1 (Thr696 and Thr853): concentration-dependent decrease

— paper PMC10458458, “Characterization of Anticancer Effects of the Analogs of DJ4, a Novel Selective Inhibitor of ROCK and MRCK Kinases” (Pharmaceuticals, 2023)
